From PMC5597618, “Identification and characterization of the novel reversible and selective cathepsin X inhibitors” (Scientific Reports, 2017) come the findings set out here.

In one series the target is T1, Cathepsin L (Homo sapiens, UniProt P07711).
T1 construct: made in house; host or cells: E. coli
The experiment in a line: Ki against cathepsin L (Z-FR-AMC). Format: biochemical. The following applies: SigmaPlot at 3 different substrate concentrations; pH 5.5. On the procedure:
(§1) Recombinant or native human cathepsins were used: recombinant cathepsin X and cathepsin S were expressed in Pichia pastoris, recombinant cathepsins B and L in E. coli, [43], native cathepsin H was isolated from human liver. Assay buffers for determining activities of cathepsins X and L consisted of 100 mM sodium acetate buffer, pH 5.5, for cathepsins H, S and B (endopeptidase activity) of 100 mM phosphate buffer pH 6.8, 6.5 and 6.0, respectively and for cathepsin B (exopeptidase activity) of 60 mM acetate buffer pH 5.0. Each assay buffer contained 0.01% Triton X-100 to prevent false positive inhibition due to aggregation of compounds[45], 5 mM cysteine, 1.5 mM EDTA and 0.1% PEG 8000. Enzymes were activated at 37 °C for 5 min before the assays.
(§2) Ki was determined by measuring the initial rate of hydrolysis at three different substrate concentrations (Supplementary Table S2) in the presence of seven different compound concentrations (0, 20, 40, 60, 80, 100 and 200 μM). 90 μL of the activated cathepsin was added to a black 96-well plate with 5 μL of the substrate and 5 μL of the compound. Formation of the fluorescent degradation product was monitored continuously at 460 nm ± 10 nm with excitation at 380 nm ± 20 nm (for AMC substrates) and, as noted above for Abz substrates, at 37 °C. All measurements were performed twice and in duplicate. The resulting data were analyzed by non-linear regression using the software SigmaPlot®, Enzyme Kinetics Module™ 1.3 and were fitted to the equation v = v max [S]/([S] (1 + [I]/αK i ) + K m (1 + [I]/K i )) (first group of compounds). For Ki determination against cathepsin X for the compounds from the second group, progress curves in the absence and presence of each putative inhibitor were fitted to the reaction mechanism presented in Fig. 3b. In this case the resulting data as well as reactivation curves were fitted to the equation system presented in Fig. 3c using ENZO application. For calculation of kinetic parameters from reaction progress curves the fluorescence coefficient for conversion of arbitrary fluorescence units to concentration was first determined. The fluorescence coefficient was calculated as the slope from the plot of initial substrate concentration vs. height of the plateau of the progress curve after complete hydrolysis of increasing concentrations of substrate, using linear regression.
(§3) Supplementary Table S2. Substrates used for the various cathepsins and their concentrations […]
(§4) Enzyme Substrate Concentration (µM) Reference/Company cathepsin X Abz-FEK(Dnp)-OH 3.25, 6.5, 13 Puzer et al.3 cathepsin B - endopept. Z-RR-AMC 60, 180, 360 Bachem cathepsin B - exopept. Abz-GIVRAK(Dnp)-OH 1, 3, 6 Bachem cathepsin S Z-VVR-AMC 0.5, 1, 1.5 Biomol cathepsin L Z-FR-AMC 0.5, 1, 4 Bachem cathepsin H Z-R-AMC 20, 80, 160 Biomol […]

Series [1] relates to PC-3 cells. The experiment in a line: Cytotoxicity assay (MTS) in PC-3 cells. Format: cell-based, human. Particulars: up to 10 μM, 24 and 48 hours. On the procedure: (§5) Human prostate cancer cell line PC-3 cells (obtained from ATCC, Manassas, USA; ATCC Number: CRL-1435) were cultured in F-12 (Gibco) and Advanced DMEM (Gibco) (1:1) with 10% FBS, 1% penicillin/streptomycin and 1% L-glutamine. Rat pheochromocytoma PC-12 cells (obtained from ATCC, Manassas, USA; ATCC Number: CRL-1721) were cultured in Advanced DMEM (Gibco) with 5% FBS, 10% heat-inactivated horse serum, 1% penicillin/streptomycin and 1% L-glutamine.
6.5 × 10^4 PC-3 cells/ml were seeded in a 96-well plate. PC-12 cells were seeded on poly-L-lysine (Sigma) coated plates in serum-free medium at a concentration of 4 × 10^4/well. Cells were treated with various concentrations of compounds (1, 2.5, 5 and 10 μM) for 24 or 48 hours. Cytotoxicity was determined with MTS reagent (CellTiter 96 Aqueous One Solution Cell Proliferation Assay, Promega) and A492 measured after 1 hour.

Series [2] has as its system PC-3 cells. The experiment in a line: Real time cell migration assay (xCELLigence, CIM plates). The format is cell-based, human. On the procedure: as §5
Cell migration assay was performed on a Real-Time Cell Analyzer Dual Plate (RTCA DP) Instrument, xCELLigence System (ACEA Biosciences). CIM plates were coated with fibronectin (10 μg/ml, BD Biosciences) on the down and upper side of the microporous PET membrane for 30 min at room temperature and 2 hours at 37 °C, respectively. Excess fibronectin was removed and wells washed with phosphate buffer saline (PBS). Compounds (10 μM) were added to the complete media (lower chambers) or serum-free media (upper chambers). 0.1% DMSO was used as a control. 2 × 10^4 cells were plated per well. In additional experimental setting, inhibitors were added only to the upper chambers 3 hours after experiment started in order to measure their impact only on the cell migration and not the adhesion. Impedance data, reported as cell index, were measured continuously every 15 min for 72 hours and then analyzed with the RTCA Software (ACEA Biosciences, Inc.). Results are normalized to cells treated with DMSO.

The target in another series is T2, cathepsin B (Homo sapiens, UniProt P07858).
T2 construct: endogenous in cells; host or cells: PC-3
Description: Labeling of cathepsin B with activity-based probe DCG-04 in PC-3 cell lysate. Format: biochemical. Particulars: 10 µM inhibitor.

Another series deals with PC-12 cells. Description: Determination of F-actin content of cells (phalloidin-TRITC fluorescence microscopy). The following applies: 10 µM, 2 h. The format is cell-based, rat. On the procedure: For the fluorescence staining of F-actin, PC-12 cells were cultured on glass coverslips coated with poly-L-lysine (4 × 10^4/ml). Next day, cells were treated with compounds (10 µM) in serum-free medium for 2 h. The cells were then fixed in 5% formalin (w/v) in PBS (pH 7.4) for 5 min and permeabilized with 0.1% Triton X-100 in PBS for 3 min. After washing with PBS, cells were incubated with phalloidin-TRITC (500 ng/mL) (Sigma) in 20 mM TrisHCl (pH 7.4) at 37 °C for 30 min. After additional washing with PBS, the Prolong Antifade kit was used for mounting the coverslips on glass slides. Fluorescence microscopy was performed using an Olympus IX 81 motorized inverted microscope.

A further series addresses cathepsin X (Homo sapiens, UniProt Q9UBR2). Description: Determination of Ki values and inhibition mechanism against cathepsin X (Abz-FEK(Dnp)-OH substrate). Format: biochemical. Set-up: made in house; host or cells: Pichia pastoris. The following applies: second group. On the procedure:
as §1, §2, §3, §4

cathepsin X, sequence (Q9UBR2 62-303): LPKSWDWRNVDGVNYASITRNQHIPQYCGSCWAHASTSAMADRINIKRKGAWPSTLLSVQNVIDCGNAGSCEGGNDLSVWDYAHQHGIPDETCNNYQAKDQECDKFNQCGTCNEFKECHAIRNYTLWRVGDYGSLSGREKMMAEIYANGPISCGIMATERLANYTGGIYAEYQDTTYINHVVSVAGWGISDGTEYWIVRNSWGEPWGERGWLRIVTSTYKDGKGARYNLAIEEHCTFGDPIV
T1 sequence (P07711 114-333): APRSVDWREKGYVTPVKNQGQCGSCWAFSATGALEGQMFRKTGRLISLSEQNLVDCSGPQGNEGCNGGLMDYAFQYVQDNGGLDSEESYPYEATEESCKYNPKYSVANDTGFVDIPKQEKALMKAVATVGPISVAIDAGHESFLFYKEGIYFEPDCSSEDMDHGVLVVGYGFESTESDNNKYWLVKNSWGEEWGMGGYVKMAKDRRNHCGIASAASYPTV

Turning to `CC(C)n1cnnc1SCC(=O)c1ccc2c(c1)OCCO2` [Compound 22, 1-(2,3-Dihydrobenzo[b][1,4]dioxin-6-yl)-2-((4-isopropyl-4H-1,2,4-triazol-3-yl)thio)ethan-1-one], on Cathepsin L, the “Ki Cathepsin L” value is listed as “n.i”. Also, the “cytotoxicity to PC-3 cells” value in the series on PC-3 cells [1] is given as “not cytotoxic”. Besides, in the series with PC-3 cells [2] (Homo sapiens, PC-3, 10 μM, compound in upper and bottom compartments, vs DMSO), the inhibition at 10 µM lay within 15 to 30%. For the same molecule, in the series on PC-3 cells [2] (compound only in upper compartment, added 3 hours after seeding), the “inhibition of PC-3 cell migration, alternative setting excluding adhesion” value is given as “inhibits migration”. Also, the “inhibition of cathepsin B labeling by DCG-04” value on cathepsin B is given as “weak inhibition”. For the same molecule, the actin polymerization result in the series with PC-12 cells was “increased actin polymerization”. In addition, the Inhibition mechanism entry at cathepsin X (ENZO) was “competitive”. This molecule yielded a Ki on cathepsin X (progress curve analysis with ENZO) of 2450 ± 50 nM.

The inhibition is the drop in the measured response relative to a control, in per cent. High values mean a response far below the control, low ones a response near the control. As usually defined, the Ki is the equilibrium dissociation constant of an inhibitor or competing ligand from its target. A low value points to tighter binding.
